Test results as given in PubChem BioAssay AID1918949 (Molecular Pharmacology Branch, DTP, NCI, 2023).

Test system: K24384-001-R-PDC complex spheroid viability
Assay: Anticancer human tumor K24384-001-R-PDC patient-derived pancreatic adenocarcinoma cell line growth inhibition
Details: for IC50: curve of first compound; for viability, T/C: stronger effect = lower value
Summary of the method: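 Drug combinations with the LSD1 inhibitor iadademstat tested on tumor cells co-cultured as spheroids with endothelial cells and mesenchymal stem cells. Concentrations descended in half-log increments from clinical Cmax or 10 microM.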

[1] = second compound 0.1 µM, first compound 0.0316 µM
[2] = second compound 0.1 µM, first compound 0.1 µM
[3] = second compound 0.1 µM, first compound 0.316 µM
[4] = second compound 0.1 µM, first compound 1 µM
[5] = second compound 0.316 µM, first compound 0.0316 µM
[6] = second compound 0.316 µM, first compound 0.1 µM
[7] = second compound 0.316 µM, first compound 0.316 µM
[8] = second compound 0.316 µM, first compound 1 µM
[9] = second compound 1 µM, first compound 0.0316 µM
[10] = second compound 1 µM, first compound 0.1 µM
[11] = second compound 1 µM, first compound 0.316 µM
[12] = second compound 1 µM, first compound 1 µM
[13] = second compound 3.16 µM, first compound 0.0316 µM
[14] = second compound 3.16 µM, first compound 0.1 µM
[15] = second compound 3.16 µM, first compound 0.316 µM
[16] = second compound 3.16 µM, first compound 1 µM
[17] = second compound 10 µM, first compound 0.0316 µM
[18] = second compound 10 µM, first compound 0.1 µM
[19] = second compound 10 µM, first compound 0.316 µM
[20] = second compound 10 µM, first compound 1 µM
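Further: spheroids exposed to agents for seven days before luminescence viability reading.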
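Wherever viability, T/C is given: 100% = DMSO vehicle control viability.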

COc1ccc([C@@H](O)c2cc(-c3ncnc4cc(N5CCOCC5)ccc34)c(F)cc2Cl)nn1 + NC1CC1c1ccc(-c2cccc(O)c2)cc1
IC50 (second compound 0.1 µM): 1330 nM | IC50 (second compound 0.316 µM): 2000 nM | IC50 (second compound 1 µM): 1490 nM | IC50 (second compound 3.16 µM): 1440 nM | IC50 (second compound 10 µM): 1450 nM | viability, T/C [1]: 97% | viability, T/C [2]: 95.6% | viability, T/C [3]: 87.2% | viability, T/C [4]: 55.9% | viability, T/C (second compound 0.1 µM, first compound 3.16 µM): 29.6% | viability, T/C (second compound 0.1 µM, first compound 10 µM): 17.8% | viability, T/C [5]: 112% | viability, T/C [6]: 102% | viability, T/C [7]: 91.1% | viability, T/C [8]: 73.2% | viability, T/C (second compound 0.316 µM, first compound 3.16 µM): 34.3% | viability, T/C (second compound 0.316 µM, first compound 10 µM): 15.1% | viability, T/C [9]: 117% | viability, T/C [10]: 103% | viability, T/C [11]: 95.2% | viability, T/C [12]: 61.3% | viability, T/C (second compound 1 µM, first compound 3.16 µM): 28.1% | viability, T/C (second compound 1 µM, first compound 10 µM): 15.9% | viability, T/C [13]: 105% | viability, T/C [14]: 105% | viability, T/C [15]: 79.7% | viability, T/C [16]: 62.7% | viability, T/C (second compound 3.16 µM, first compound 3.16 µM): 28.6% | viability, T/C (second compound 3.16 µM, first compound 10 µM): 15.1% | viability, T/C [17]: 124% | viability, T/C [18]: 114% | viability, T/C [19]: 96.6% | viability, T/C [20]: 57% | viability, T/C (second compound 10 µM, first compound 3.16 µM): 32.2% | viability, T/C (second compound 10 µM, first compound 10 µM): 14.9%

Nc1ncn(C2CC(O)C(CO)S2)c(=O)n1 (stereo not given) + NC1CC1c1ccc(-c2cccc(O)c2)cc1
IC50 (second compound 0.1 µM): > 300 nM | IC50 (second compound 0.316 µM): > 300 nM | IC50 (second compound 1 µM): > 300 nM | IC50 (second compound 3.16 µM): > 300 nM | IC50 (second compound 10 µM): > 300 nM | viability, T/C (second compound 0.1 µM, first compound 0.000949 µM): 102% | viability, T/C (second compound 0.1 µM, first compound 0.003 µM): 133% | viability, T/C (second compound 0.1 µM, first compound 0.00949 µM): 101% | viability, T/C (second compound 0.1 µM, first compound 0.03 µM): 89.8% | viability, T/C (second compound 0.1 µM, first compound 0.0949 µM): 67.3% | viability, T/C (second compound 0.1 µM, first compound 0.3 µM): 54.9% | viability, T/C (second compound 0.316 µM, first compound 0.000949 µM): 102% | viability, T/C (second compound 0.316 µM, first compound 0.003 µM): 97.1% | viability, T/C (second compound 0.316 µM, first compound 0.00949 µM): 103% | viability, T/C (second compound 0.316 µM, first compound 0.03 µM): 87.1% | viability, T/C (second compound 0.316 µM, first compound 0.0949 µM): 72.2% | viability, T/C (second compound 0.316 µM, first compound 0.3 µM): 52.1% | viability, T/C (second compound 1 µM, first compound 0.000949 µM): 124% | viability, T/C (second compound 1 µM, first compound 0.003 µM): 110% | viability, T/C (second compound 1 µM, first compound 0.00949 µM): 99.2% | viability, T/C (second compound 1 µM, first compound 0.03 µM): 87.8% | viability, T/C (second compound 1 µM, first compound 0.0949 µM): 73.1% | viability, T/C (second compound 1 µM, first compound 0.3 µM): 50.6% | viability, T/C (second compound 3.16 µM, first compound 0.000949 µM): 108% | viability, T/C (second compound 3.16 µM, first compound 0.003 µM): 113% | viability, T/C (second compound 3.16 µM, first compound 0.00949 µM): 108% | viability, T/C (second compound 3.16 µM, first compound 0.03 µM): 108% | viability, T/C (second compound 3.16 µM, first compound 0.0949 µM): 92.6% | viability, T/C (second compound 3.16 µM, first compound 0.3 µM): 56.2% | viability, T/C (second compound 10 µM, first compound 0.000949 µM): 136% | viability, T/C (second compound 10 µM, first compound 0.003 µM): 131% | viability, T/C (second compound 10 µM, first compound 0.00949 µM): 120% | viability, T/C (second compound 10 µM, first compound 0.03 µM): 108% | viability, T/C (second compound 10 µM, first compound 0.0949 µM): 95.3% | viability, T/C (second compound 10 µM, first compound 0.3 µM): 57.2%

O=C(C=Cn1cnc(-c2cc(C(F)(F)F)cc(C(F)(F)F)c2)n1)NNc1cnccn1 + NC1CC1c1ccc(-c2cccc(O)c2)cc1
IC50 (second compound 0.1 µM): 27.7 nM | IC50 (second compound 0.316 µM): 23.7 nM | IC50 (second compound 1 µM): 22.4 nM | IC50 (second compound 3.16 µM): 21.2 nM | IC50 (second compound 10 µM): 27.8 nM | viability, T/C (second compound 0.1 µM, first compound 0.00316 µM): 68.8% | viability, T/C (second compound 0.1 µM, first compound 0.01 µM): 72.3% | viability, T/C [1]: 46.5% | viability, T/C [2]: 28.7% | viability, T/C [3]: 24.7% | viability, T/C [4]: 20.6% | viability, T/C (second compound 0.316 µM, first compound 0.00316 µM): 68.2% | viability, T/C (second compound 0.316 µM, first compound 0.01 µM): 72.8% | viability, T/C [5]: 42.7% | viability, T/C [6]: 30.2% | viability, T/C [7]: 21.6% | viability, T/C [8]: 20.3% | viability, T/C (second compound 1 µM, first compound 0.00316 µM): 67.1% | viability, T/C (second compound 1 µM, first compound 0.01 µM): 77% | viability, T/C [9]: 40.6% | viability, T/C [10]: 27.3% | viability, T/C [11]: 22.7% | viability, T/C [12]: 19% | viability, T/C (second compound 3.16 µM, first compound 0.00316 µM): 80.9% | viability, T/C (second compound 3.16 µM, first compound 0.01 µM): 65.4% | viability, T/C [13]: 42% | viability, T/C [14]: 26% | viability, T/C [15]: 21.7% | viability, T/C [16]: 19.5% | viability, T/C (second compound 10 µM, first compound 0.00316 µM): 80.6% | viability, T/C (second compound 10 µM, first compound 0.01 µM): 81.9% | viability, T/C [17]: 46% | viability, T/C [18]: 30.7% | viability, T/C [19]: 26.7% | viability, T/C [20]: 24.5%
